{"source": "patent US9682959B2", "about": "“Ethynyl derivatives” (Hoffmann-La Roche Inc., priority 2013, dated 2017)", "molecular_target": "rat mGlu 5a receptor (Rattus norvegicus (Rat), UniProt P31424)", "sequence (P31424 other isoform, or with tags, fused parts or gaps)": "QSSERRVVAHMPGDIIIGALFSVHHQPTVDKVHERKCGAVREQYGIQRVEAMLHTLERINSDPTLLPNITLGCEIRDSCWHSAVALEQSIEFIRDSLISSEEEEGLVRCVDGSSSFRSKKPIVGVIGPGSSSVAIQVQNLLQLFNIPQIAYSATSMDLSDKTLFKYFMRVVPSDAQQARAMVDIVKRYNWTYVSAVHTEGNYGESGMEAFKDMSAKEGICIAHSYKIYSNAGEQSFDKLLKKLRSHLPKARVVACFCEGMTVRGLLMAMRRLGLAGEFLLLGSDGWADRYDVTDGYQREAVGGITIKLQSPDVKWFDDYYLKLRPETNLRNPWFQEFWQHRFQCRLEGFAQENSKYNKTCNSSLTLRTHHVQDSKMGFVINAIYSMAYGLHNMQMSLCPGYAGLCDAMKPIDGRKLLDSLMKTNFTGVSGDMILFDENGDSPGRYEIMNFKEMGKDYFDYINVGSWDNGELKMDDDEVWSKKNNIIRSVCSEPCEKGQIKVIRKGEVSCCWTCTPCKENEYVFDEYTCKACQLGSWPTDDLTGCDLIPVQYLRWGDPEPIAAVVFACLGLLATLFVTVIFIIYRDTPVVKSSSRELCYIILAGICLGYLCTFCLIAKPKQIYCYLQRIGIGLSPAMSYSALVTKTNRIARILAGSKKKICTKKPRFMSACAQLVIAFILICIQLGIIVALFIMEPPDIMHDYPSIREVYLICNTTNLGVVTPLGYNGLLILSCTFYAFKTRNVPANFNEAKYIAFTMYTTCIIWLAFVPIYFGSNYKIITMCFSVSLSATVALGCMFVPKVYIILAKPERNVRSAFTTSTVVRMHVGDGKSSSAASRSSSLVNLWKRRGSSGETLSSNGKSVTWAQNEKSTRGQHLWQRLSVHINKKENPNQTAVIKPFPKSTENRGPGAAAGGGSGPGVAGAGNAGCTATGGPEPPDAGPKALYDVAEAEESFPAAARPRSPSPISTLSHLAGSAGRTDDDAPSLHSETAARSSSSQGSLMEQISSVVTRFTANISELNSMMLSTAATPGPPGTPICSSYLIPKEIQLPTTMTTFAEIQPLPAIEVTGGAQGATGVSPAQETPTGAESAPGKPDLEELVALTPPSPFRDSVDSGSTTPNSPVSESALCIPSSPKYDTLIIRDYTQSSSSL", "assay": "MPEP binding / [Ca2+]i FLIPR measurement on mGlu 5a transfected EBNA cells, antagonists tested against 10 μM glutamate", "conditions": "rat mGlu 5a receptor transiently transfected into EBNA cells; Ki calculated from IC50", "protocol": "The pharmacological activity of the compounds was tested using the following method: cDNA encoding rat mGlu 5a receptor was transiently transfected into EBNA cells using a procedure described by E.-J. Schlaeger and K. Christensen (Cytotechnology 1998, 15, 1-13). [Ca^2+]i measurements were performed on mGlu 5a transfected EBNA cells after incubation of the cells with Fluo 3-AM (obtainable by FLUKA, 0.5 μM final concentration) for 1 hour at 37° C. followed by 4 washes with assay buffer (DMEM supplemented with Hank's salt and 20 mM HEPES. [Ca^2+]i measurements were done using a fluorometric imaging plate reader (FLIPR, Molecular Devices Corporation, La Jolla, Calif., USA). When compounds were evaluated as antagonists they were tested against 10 μM glutamate as agonist.\nThe inhibition (antagonists) curves were fitted with a four parameter logistic equation giving IC50, and Hill coefficient using the iterative non linear curve fitting software Origin (Microcal Software Inc., Northampton, Mass., USA).\nThe Ki values of the compounds tested are given. The Ki value is defined by the following formula:\n[formula] in which the IC50 values are those concentrations of the compounds tested in μM by which 50% of the effect of compounds are antagonized. [L] is the concentration and the EC50 value is the concentration of the compounds in μM which brings about 50% stimulation.\nThe compounds of the present invention are mGluR5 receptor antagonists.", "data": [{"smiles": "CN1C(=O)C(C)(C)N=C1c1ccc(C#Cc2cccc(F)c2)cn1", "note": "[Example 1, 2-[5-[2-(3-Fluorophenyl)ethynyl]-2-pyridyl]-3,5,5-trimethyl-imidazol-4-one]", "values": [{"measurement": "Ki", "value": 18, "unit": "nM"}]}, {"smiles": "CN1C(=O)C(C)(C)N=C1c1ncc(C#Cc2cccc(Cl)c2)cn1", "note": "[Example 4, 2-[5-[2-(3-Chlorophenyl)ethynyl]-2-pyrimidyl]-3,5,5-trimethyl-imidazol-4-one]", "values": [{"measurement": "Ki", "value": 80, "unit": "nM"}]}, {"smiles": "CN1C(=O)C(C)(C)N=C1c1ncc(C#Cc2ccccc2)cn1", "note": "[Example 5, 3,5,5-Trimethyl-2-[5-(2-phenylethynyl)-2-pyrimidyl]imidazol-4-one]", "values": [{"measurement": "Ki", "value": 281, "unit": "nM"}]}, {"smiles": "CN1C(=O)C(C)(C)N=C1c1ncc(C#Cc2cccc(F)c2)cn1", "note": "[Example 6, 2-[5-[2-(3-Fluorophenyl)ethynyl]-2-pyrimidyl]-3,5,5-trimethyl-imidazol-4-one]", "values": [{"measurement": "Ki", "value": 280, "unit": "nM"}]}, {"smiles": "CN1C(=O)C(C)(C)N=C1c1ccc(C#Cc2ccccc2)cn1", "note": "[Example 2, 3,5,5-Trimethyl-2-[5-(2-phenylethynyl)-2-pyridyl]imidazol-4-one]", "values": [{"measurement": "Ki", "value": 38, "unit": "nM"}]}, {"smiles": "CN1C(=O)C(C)(C)N=C1c1ccc(C#Cc2cccc(Cl)c2)cn1", "note": "[Example 3, 2-[5-[2-(3-Chlorophenyl)ethynyl]-2-pyridyl]-3,5,5-trimethyl-imidazol-4-one]", "values": [{"measurement": "Ki", "value": 16, "unit": "nM"}]}]}
